Details of series [1]: method as in PMID 23756200. As to conditions: cited from earlier work.
Series [2] addresses T1, CB1Rs of mouse vas deferens (Mus musculus, UniProt P47746).
T1 construct: naturally expressed prejunctional neuronal CB1Rs; from tissue; host or cells: isolated vas deferens of male albino CD1 mice
Kind of series: Isolated organ assay: electrically evoked contractions of mouse vas deferens. To be noted: for Kb: read-out: Antagonist potency pA2 (converted).
Method: Vas deferens was obtained from male albino CD1 mice weighing 30 to 40 g. Tissue was mounted in a 10 mL organ bath at an initial tension of 0.5 g using a previously described method [16]. The bath contained Krebs-Henseleit solution (118.2 mM NaCl, 4.75 mM KCl, 1.19 mM KH2PO4, 25.0 mM NaHCO3, 11.0 mM glucose, and 2.54 mM CaCl2), which was kept at 37 °C and bubbled with 95% O2 and 5% CO2. Isometric contractions were evoked by stimulation with 0.5 sec trains of three pulses of 110% maximal voltage (train frequency, 0.1 Hz; pulse duration, 0.5 msec) through platinum electrodes attached to the upper end of each bath and a stainless-steel electrode attached to the lower end. Stimuli were generated using a Grass S88K stimulator and then amplified (multiplexing pulse booster 316S; Ugo Basile, Comerio, Italy) and divided to yield separate outputs to four organ baths. Contractions were monitored using a computer equipped with a data recording and analysis system (PowerLab 400) linked via preamplifiers (QuadBridge) to an F10 transducer (Biological Instruments, Besozzo, Italy). Each tissue was subject to several periods of stimulation. […] The stimulator was then switched off for 15 min, after which the tissues were subjected to further periods of stimulation each lasting 5 min and separated by a stimulation-free period. The compounds to be assayed were added once the contractile responses to electrical stimulation were reproducible. Preparations were exposed to cumulative increasing concentrations of the compounds to obtain concentration-response curves in the case of CB1 agonist (and partial agonist) compounds. […] Inhibition of the electrically evoked twitch response was expressed in percentage terms and was calculated by comparing the amplitude of the twitch response after each addition of the agonist compound (alone or in the presence of a potential CB1 antagonist) with the amplitude detected in absence of the compounds to be assayed (basal value). The pA2 values for competitive antagonism were calculated by Schild regression analysis [37]. Data were plotted as log antagonist concentration versus log [(antagonist concentration/agonist concentration)-1].

The subject of series [3] is obese mice. On the set-up: method as in PMID 23756200. As to conditions: chronic treatment of obese mice; cited from earlier work.
Series [4] concerns C57Bl6/J mice. Kind of series: Acute food intake in fasted mice. Format: in vivo, mouse. To be noted: for Food intake effect over time: 10 mg/kg i.p., at 2 h and 3 h; for Activity on food intake compared to rimonabant: dose of 10 mg/kg i.p. Here is the method:
To further evaluate the potential application of these CB1 antagonists in the control of food intake and in obesity treatment, compound 1b was preliminarily tested in comparison with SR141716A in an acute in vivo assay using C57Bl6/J mice. The evaluation was carried out according to the animal model previously reported by Di Marzo [19].
It is well known that CB1Rs mediate the hyperphagic effect of cannabinoids. […] To test the potential anti-obesity effect of the new CB1 antagonist 1b we performed food intake experiments according to the acute animal model described by Di Marzo [19]. For a comparison we also reported the results concerning the assumed lead compound of this new series, derivative 1a.
A widely described method was used for the screening of the new CB1 antagonists in the food intake animal model. C57Bl6/J mice weighing 20–25 g were housed individually on a reverse light-dark cycle in a room with temperature and humidity control. The mice were fasted for 18 h before testing. Vehicle or CB1 antagonists were administered by an intraperitoneal injection and 15 min later a known amount of food was presented. Food pellets were weighed after each hour for three hours. Rimonabant was used as internal positive control in order to evaluate the efficacy of each compound. All animal experiments were performed according to the UE (CEE N° 86/609) guidelines for the care and use of experimental animals.
Two-way ANOVA with Bonferroni post-testing was performed using GraphPad Prism version 5.00 for Windows (GraphPad Software, San Diego CA, USA).

The target of series [5] is T2, CB1 receptor (Mus musculus, UniProt P47746).
T2 construct: from tissue; host or cells: mouse (CD1) brain minus cerebellum, membrane homogenate
T2 sequence (P47746 whole entry): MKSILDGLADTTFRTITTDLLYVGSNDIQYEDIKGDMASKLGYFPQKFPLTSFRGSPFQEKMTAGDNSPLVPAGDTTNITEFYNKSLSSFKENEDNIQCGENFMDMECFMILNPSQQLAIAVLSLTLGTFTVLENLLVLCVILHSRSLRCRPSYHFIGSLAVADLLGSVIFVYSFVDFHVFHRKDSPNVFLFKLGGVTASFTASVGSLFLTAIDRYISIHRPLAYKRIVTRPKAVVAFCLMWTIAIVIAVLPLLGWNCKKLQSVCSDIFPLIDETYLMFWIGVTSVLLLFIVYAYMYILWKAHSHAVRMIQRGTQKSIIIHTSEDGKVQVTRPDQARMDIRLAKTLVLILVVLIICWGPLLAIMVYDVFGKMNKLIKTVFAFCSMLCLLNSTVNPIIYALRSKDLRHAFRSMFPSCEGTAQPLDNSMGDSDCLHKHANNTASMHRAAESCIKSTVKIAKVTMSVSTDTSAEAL
To be noted: [3H]-CP 55,940, mouse brain (minus cerebellum) homogenate; lead compound; read-out: KiCB1; cited from earlier work.

In series [6] the target is T3, CB2 receptor (Mus musculus, UniProt P47936).
T3 construct: from tissue; host or cells: mouse (CD1) spleen, membrane homogenate
T3 sequence (P47936 whole entry): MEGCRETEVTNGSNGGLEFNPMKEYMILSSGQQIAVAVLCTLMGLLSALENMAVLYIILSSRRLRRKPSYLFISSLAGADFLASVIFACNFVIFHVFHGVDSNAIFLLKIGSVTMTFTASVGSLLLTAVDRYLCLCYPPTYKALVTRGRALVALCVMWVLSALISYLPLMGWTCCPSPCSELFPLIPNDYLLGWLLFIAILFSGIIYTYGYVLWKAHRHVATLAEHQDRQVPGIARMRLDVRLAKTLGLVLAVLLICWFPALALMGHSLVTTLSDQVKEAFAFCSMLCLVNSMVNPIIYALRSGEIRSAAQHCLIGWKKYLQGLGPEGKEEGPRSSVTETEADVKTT
As to conditions: [3H]-CP-55,940, mouse spleen homogenate; lead compound; read-out: KiCB2; cited from earlier work.

Series [7] relates to ventral tegmental area (VTA) dopamine neurons projecting to the NAc shell. On the set-up: method as in PMID 27521837. To be noted: i.v. administration of high doses; cited from earlier work.
Series [8] relates to P-ERK 1/2 expression in mouse neuroblastoma N1E-115 cells (CB1Rs). Nature of the series: P-ERK 1/2 expression in N1E-115 cells (Western blot). The class given is cell-based. Here is the method:
Agonist or antagonist activity of the new derivatives towards CB1Rs were assayed through in vitro testing based on the determination of phosphorylated ERK 1/2 (P-ERK 1/2) expression in a mouse neuroblastoma N1E-115 cell line. As previously reported, this cell line expresses CB1Rs but not CB2Rs; moreover, it has been shown that the exposure of N1E-115 cells to the cannabinoid agonists arachidonyl-2-chloroethylamide (ACEA) and WIN 55-212,2 induces a rapid phosphorylation and activation of the ERK 1/2. The addition of CB1 antagonists as SR141716A abolishes the response induced by the cannabinoid agonists.
N1E-115 cells were grown at 37 °C in humidified 5% CO2 in Dulbecco’s Modified Eagle’s Medium (high glucose supplemented with 10% fetal bovine serum (FBS), 1 μg/mL penicillin-streptomycin, 2 mM L-glutamine, 2.5 μg/mL amphotericin B and 50 μg/mL gentamicin). […] Tested and reference compounds were dissolved in Dulbecco’s phosphate buffered saline (D-PBS) with 1% DMSO and treatments were performed in a volume of 10 μL/mL of cell suspension.
P-ERK 1/2 expression was determined through Western blot analysis according to the previously reported procedure. One-way ANOVA was performed as a statistical analysis using the Graph Pad Prism program (San Diego, CA, USA).
The same procedure was adopted to determine CB1 specific antagonism for compounds which had no effect on P-ERK 1/2 expression themselves. In these last cases, WIN55,212-2 at 25 nM as a reference cannabinoid agonist agent and the new CB1 antagonists at 150–200 nM were employed.

In series [9] the test system is rats. On the set-up: method as in PMID 27521837. To be noted: i.p. dose of 0.125 mg/kg; cited from earlier work.
For series [10], the system named is CD1 mice. Kind of series: Gastrointestinal transit (GIT), carmine marker. The class given is in vivo, mouse. The source says: The mouse isolated vas deferens is a nerve-smooth muscle preparation that serves as a highly sensitive and quantitative functional in vitro bioassay for cannabinoid CB1R agonists. The effect of CB1 agonists is related to the action on naturally expressed prejunctional neuronal CB1Rs to inhibit release of the contractile neurotransmitters, noradrenaline and ATP, which is provoked by electrical stimulation. It has been shown that CB1 antagonist derivatives are able to block or reduce the inhibition of the electrically evoked contraction amplitude of the vas deferens induced by CB1 agonists, with parallel dextral shifts in CB1R agonist log concentration-response curves in electrically stimulated tissues. According to previous studies concerning cannabinoid agents, a gastrointestinal transit test was adopted to confirm CB1 antagonism. […] Moreover, the capability of CB1 antagonist compounds both to block the constipation effect induced by cannabinoid agonists and to themselves increase themselves gastrointestinal motility has been reported.
The same procedure previously reported by Murineddu et al. was adopted to evaluate the effect of the compounds on GIT. CD1 mice weighing 30–35 g were used. Carmine (Sigma Chemical Co, St. Louis, MO, USA) was suspended (6% wt/v) in distilled water containing 0.5% methylcellulose and administered by gavage at the dose of 0.3 mL/mouse. Briefly, after 20 min from carmine administration, mice were sacrificed by cervical dislocation and the stomach and small intestine were removed and the omentum was separated, avoiding stretching. The length of the intestine was measured starting from the pyloric sphincter to the ileocecal junction. The distance travelled by the head of the marker was measured and expressed as a percent of the total length of the small intestine. Using this procedure, the marker was consistently found at approximately 50% of the small intestine, 20 min after its administration to naive mice.
20 min later, mice were killed by dislocation cervical and intestines were removed. […] The length of the intestine from the pyloric sphincter to the ileocecal junction and the distance travelled by the carmine front were both measured and recorded. Groups of n = 10 mice were used in each experiment.
Statistical analyses were performed by one-way ANOVA followed by Newman-Keuls post-hoc comparison.

Some results are limits rather than exact numbers.

T1 sequence (P47746 whole entry): as the sequence (P47746 whole entry) above

Regarding `O=C(NN1CCCCC1)c1nn(-c2ccc(Cl)cc2Cl)c2c1CCOc1cc(Cl)ccc1-2` [Compound 1a, 8-chloro-1-(2,4-dichlorophenyl)-N-piperidin-1-yl-4,5-dihydrobenzo-1H-6-oxa-cyclohepta[1,2-c]pyrazole-3-carboxamide], the “Blood-brain barrier (BBB) permeability” value in [1] is “poor”. Further, the Kb in series [2] is 7.94 nM. The “Food intake and body weight on chronic treatment” value in [3] was “reduction of food intake and body weight”. For the same compound, in [4], the “Food intake effect over time” value was “still markedly decreased food intake” and the “Activity on food intake compared to rimonabant” value was “Significant increments of the activity”. Also, the Ki in [5] is 10.3 ± 0.41 nM. In series [6], the Ki is more than 5000 nM.
For the compound `O=C(NC1CCCCC1)c1nn(-c2ccc(Cl)cc2Cl)c2c1CCOc1cc(Cl)ccc1-2` [Compound 1b], the “Effect on the WIN-55,212-2 action on VTA dopamine neuron activity” value in [7] is reported as “reverted the effect of the agonist WIN-55,212-2”. The Kb in [2] was 0.794 nM. In addition, the “Change of electrically-evoked contractions versus basal response, compound alone” value in [2] (up to a concentration of 10^−6 M, 30 min incubation) is reported as “No agonist activity”. In [8] (5 min pre-treatment with compound (150–200 nM; 1b 200 nM), then WIN 55,212-2 25 nM for 10 min), the “Counteraction of the WIN 55,212-2-induced increase of P-ERK 1/2 expression” value was “CB1 antagonist activity”. The “Food intake and body weight” value in series [9] was “reduced both food intake and body weight”. For the same compound, in series [4], the “Food intake effect over time” value is reported as “still markedly decreased food intake” and the “Activity on food intake compared to rimonabant” value was “Significant increments of the activity”. In [4] (20 mg/kg (highest assayed dosage)), the “Observable side effects / behavioural effects” value was “absence of observable side effects”. Also, in series [4] (starting from a dose of 3 mg/kg i.p., fasted mice), the “Food intake compared to vehicle” value was “significantly reduced food intake”. Moreover, the Ki in series [5] was 40 ± 7 nM. Moreover, in [6], the Ki is 3725 ± 25 nM. The “Increase in gastrointestinal transit in comparison to vehicle-treated mice” value in [10] (0.5–1.0 mg/kg i.p.) is recorded as 65–70%. In series [10] (WIN 55,212-2 0.5 mg/kg i.p.), the “Effect on GIT in combination with WIN 55,212-2” value is “significantly blocked”.
As for `CC1(C)C2CCC(CNC(=O)c3nn(-c4ccc(Cl)cc4Cl)c4c3CCOc3cc(Cl)ccc3-4)C1C2` (stereo not drawn) [Compound 1e, 8-Chloro-1-(2,4-dichlorophenyl)-N-(6,6-dimethyl-bicyclo[3.1.1]hept-2-yl-methyl)-4,5-dihydrobenzo-1H-6-oxa-cyclohepta[1,2-c]pyrazole-3-carboxamide], the melting point is 142 to 143 °C. The “Maximum inhibition of the amplitude of electrically-evoked contractions” value in series [2] (cumulative concentration-response curve) is “around 60%”. For the same compound, in series [8] (10 min exposure, N1E-115 cells), the “Concentration up to which a dose response effect on P-ERK 1/2 expression was highlighted” value was not above 75 nM. For the same compound, the “Effect on P-ERK 1/2 expression (agonist activity towards CB1)” value in series [8] (compound alone, 10 min exposure, 1b–d at concentrations up to 1 μM) was “CB1 agonist activity”.

(Values after article PMC6539809, “Development of Oxygen-Bridged Pyrazole-Based Structures as Cannabinoid Receptor 1 Ligands” (Molecules, 2019).)
